Experimental data reported in ChEMBL document CHEMBL1149515, “Small molecule inhibitors of IgE synthesis” (Bioorg Med Chem Lett, 2006).
The source made the active and inactive calls. No cut-off for these calls is given here.

Experiments:
CYP1A1 = experiment: Half life assessed as CYP1A1 mediated metabolism at 1 uM; type: ADME
[1] = Lipophilicity, LogD of the compound; type: physicochemical; conditions: octanol/water
[2] = Stability in human liver microsome at 1uM; type: ADME; conditions: liver microsomes
CYP1A2 = experiment: Half life assessed as CYP1A2 mediated metabolism at 1 uM; type: ADME
Salmonella typhi = experiment: Mutagenic activity against […] by Ames assay; type: functional, organism-based; conditions: Salmonella enterica subsp. enterica […]
PBL = experiment: Inhibition of IL4-induced IgE synthesis in human peripheral blood lymphocytes; type: functional, cell-based

SMILES | half-life at 1 µM (CYP1A1) | logD [1] | half-life at 1 µM [2] | half-life at 1 µM (CYP1A2) | Activity (Salmonella typhi) | IC50 (PBL)
c1cnc(N2CCN(c3nccn4ccnc34)CC2)nc1 | < 2 min | 2 | 45 min | 2 min | Active | 18 nM
O=C(CCc1cnc2c(N3CCN(c4ncccn4)CC3)nccn12)N1CCOCC1 | > 120 min | – | – | > 120 min | – | > 10000 nM
c1cn2ccnc2c(-c2ccc(N3CCCC3)nc2)n1 | < 1 min | 2.5 | 14 min | < 1 min | – | 55 nM
CN1CCC(NC(=O)c2cn3ccnc3c(N3CCN(c4ccccn4)CC3)n2)CC1 | 45 min | – | > 120 min | 95 min | – | 37 nM
CCN1CCC(NC(=O)c2nc(N3CCN(c4ncccn4)CC3)c3nccn3c2C)CC1 | > 120 min | 1.2 | > 120 min | – | – | 49 nM
c1cn2ccnc2c(N2CCN(C3CCCC3)CC2)n1 | – | – | > 120 min | > 120 min | – | > 10000 nM
CC(C)(C)NC(=O)c1cn2ccnc2c(N2CCN(c3ncccn3)CC2)n1 | 13 min | 3.7 | 3 min | – | inactive | 39 nM
O=C(NC1CCNC1)c1cn2ccnc2c(N2CCN(c3ccccn3)CC2)n1 (stereo not drawn) | – | – | > 120 min | > 120 min | – | 118 nM
